Source: patent US9505709B2, “Compositions and methods relating to ionic salts of peptides” (Thetis Pharmaceuticals LLC, priority 2014, dated 2016)
One block for each compound: values may come before it. Peptide text beside a SMILES is read from it.

Key:
[1] = Stability analysis by 1H NMR of samples exposed to air and light; settings: ambient temperature
Protocol: Stability analysis was performed using 1H NMR (400 MHz) with acetic acid-d4 at various time point (typically days 1, 14, 30 and 60) using samples exposed to air and light at ambient temperature (clear vials with no caps).

Balb/C mice = assay: Ocular irritation after topical dosing to the cornea (hyperemia, squinting, discharge, lid swelling); assay type: in vivo; settings: for Hyperemia: 3 μL drop in each eye four times daily for 3 days; for Squinting: topical to cornea
Protocol: In an embodiment where the ophthalmic formulation is an aqueous formulation, it has been determined in mice that certain formulations can be administered to the surface of the eye without producing irritation that would make them unsuitable for such application. Irritation parameters of TP-211-1, TP-212-1, TP-311-1 and TP-312-1 related to hyperemia, squinting, and discharge were determined in Balb/C mice. Mice were dosed topically to the cornea using a calibrated micropipette, with a 3 μL drop of treatment in each eye four times daily for 3 consecutive days at various concentrations.
TP-211-1 is Lysyl-lysine EPA. TP-212-1 is Lysyl-lysine bis-EPA. TP-311-1 is Lysyl-lysine DHA. TP-312-1 is Lysyl-lysine bis-DHA. The study drugs were prepared using phosphate buffered saline (PBS) to reach target concentrations ranging from 0.1% to 1.0%.
The animals were monitored for scratching at the eye or any other abnormal behavior post-dose. Ocular exams were conducted on Days 1 and 3 with use of a Micron III camera system to take high resolution videos of the right eye of each animal Clinical signs including but not limited to hyperemia, discharge, lid swelling, and squinting were evaluated by trained personnel who was masked as to group assignment. Each clinical sign was graded on a scale of 0-4, with the exception of lid swelling which was graded on a scale of 0-2. Scores were averaged and are expressed as the mean±SEM for each group. Statistical significance was assessed between the treatment arms and the vehicle group. Any significance is noted by asterisks (*=p<0.05, **=p<0.01, ***=p<0.001).

[2] = Oral pharmacokinetics (oral gavage), plasma free EPA or free DHA; assay type: in vivo, Sprague-Dawley rats; settings: oral gavage 40 mg/kg, rat
Protocol: Experiments via Oral Gavage: Oral pharmacokinetic parameters of TP-212 (Lysyl-Lysine Bis-EPA), TP-312 (Lysyl-Lysine Bis-DHA), EPA-EE, EPA FFA and DHA FFA were determined in Sprague-Dawley rats. EPA-EE is 97% pure ethyl ester form of eicosapentaenoic acid. It is the principal polyunsaturated fatty acid in Vascepa, an Omega-3 compound approved in the U.S. for the treatment of severe hypertriglyceridemia. EPA FFA is 97% pure free fatty acid form of eicosapentaenoic acid and DHA FFA is 98% pure free fatty acid DHA. EPA FFA and DHA FFA are the two principal poly-unsaturated fatty acids in Epanova, an Omega-3 compound approved in the U.S. for the treatment of severe hypertriglyceridemia. The subject drugs were administered by oral gavage as an aqueous solution in de-ionized water to 6 Sprague-Dawley rats per group (3 males and 3 females). Rats were dosed at 40 mg/kg. Blood samples were obtained from each rat by jugular vein catheter. Samples were collected at pre-dose and at 0.25, 0.5, 1, 2, 4, 8, 12 and 18 hours post dose. Blood samples were centrifuged to separate red blood cells and the resulting plasma samples were analyzed for free EPA or free DHA. Free EPA or […] extracted from rat plasma with hexane at acidic condition without hydrolysis. Detection was by MS-MS monitoring of negative ion for EPA or DHA. Calculated pharmacokinetic values are mean values from 6 rats for each study drug.
For all figures and tables, the data are adjusted as follows for comparative purposes. First, the actual plasma levels are baseline adjusted. Thus, for each study arm, the pre-dose level (time=0) is subtracted from the actual plasma levels at each time point, with negative values adjusted to zero. Second, these baseline adjusted values are further adjusted to be molar dose equivalent on a comparative basis among the study arms with respect to EPA or DHA payload (i.e., as if equal amounts of free fatty acid EPA or DHA are administered in each study arm).

[3] = 0 h (pre-dose), molar dose equivalent, baseline adjusted
[4] = 0.25 h (15 min), molar dose equivalent, baseline adjusted
[5] = 0.5 h (30 min), molar dose equivalent, baseline adjusted
[6] = 1 h (60 min), molar dose equivalent, baseline adjusted
[7] = 2 h (120 min), molar dose equivalent, baseline adjusted
[8] = 4 h (240 min), molar dose equivalent, baseline adjusted
[9] = 8 h, molar dose equivalent, baseline adjusted
[10] = 12 h, molar dose equivalent, baseline adjusted
[11] = 18 h, molar dose equivalent, baseline adjusted
[12] = molar dose equivalent, baseline adjusted

Structure (SMILES): CC/C=C\C/C=C\C/C=C\C/C=C\C/C=C\CCCC(=O)O.NCCCC[C@H](NC(=O)[C@@H](N)CCCCN)C(=O)O.O=C(O)c1cccnc1 [Compound 7, (L,L) Lysyl-lysine EPA niacin]
Stability by NMR (amount of sample remaining relative to original sample) ([1]; Day 3): 1 (1 = >95%)
Stability by NMR (amount of sample remaining relative to original sample) ([1]; Day 14): 1 (1 = >95%)
Stability by NMR (amount of sample remaining relative to original sample) ([1]; Day 30): 1 (1 = >95%)
Stability by NMR (amount of sample remaining relative to original sample) ([1]; Day 60): 1 (1 = >95%)

Structure (SMILES): CC/C=C\C/C=C\C/C=C\C/C=C\C/C=C\C/C=C\CCC(=O)O.NCCCC[C@H](NC(=O)[C@@H](N)CCCCN)C(=O)O [Compound 3, (L,L) Lysyl lysine DHA (mono)]
Hyperemia (Balb/C mice; 0.5% concentration in PBS): did not cause any increase in hyperemia or squinting throughout
Squinting (Balb/C mice; 0.5% concentration in PBS): did not cause any increase in hyperemia or squinting throughout
Hyperemia (Balb/C mice; 1.0% concentration in PBS): elevated hyperemia after the first dose administration
Squinting (Balb/C mice; 1.0% concentration in PBS): no increase in squinting levels
Concentration at which not irritating / well tolerated (Balb/C mice; topical to cornea four times daily for 3 days): less than 1.0%
Stability by NMR (amount of sample remaining relative to original sample) ([1]; Day 3): 1 (1 = >95%)
Stability by NMR (amount of sample remaining relative to original sample) ([1]; Day 14): 1 (1 = >95%)
Stability by NMR (amount of sample remaining relative to original sample) ([1]; Day 30): 1 (1 = >95%)
Stability by NMR (amount of sample remaining relative to original sample) ([1]; Day 60): 1 (1 = >95%)

Tmax (free EPA) [2]: 4 h
Plasma level of free EPA [2, 3]: 0 ng/mL
Plasma level of free EPA [2, 4]: 300 ng/mL
Plasma level of free EPA [2, 5]: 500 ng/mL
Plasma level of free EPA [2, 6]: 700 ng/mL
Plasma level of free EPA [2, 7]: 800 ng/mL
Plasma level of free EPA [2, 8]: 1100 ng/mL
Plasma level of free EPA [2, 9]: 500 ng/mL
Plasma level of free EPA [2, 10]: 0 ng/mL
Plasma level of free EPA [2, 11]: 0 ng/mL
AUC 0-18 hrs (free EPA) [2, 12]: 7200 ng·h/mL
Cmax (free EPA) [2, 12]: 1100 ng/mL
Stability by NMR (amount of sample remaining relative to original sample) ([1]; Day 3): 1 (1 = >95%)
Stability by NMR (amount of sample remaining relative to original sample) ([1]; Day 14): 1-2
Stability by NMR (amount of sample remaining relative to original sample) ([1]; Day 30): 4 (4 = <50%)
Stability by NMR (amount of sample remaining relative to original sample) ([1]; Day 60): 4 (4 = <50%)
Structure (SMILES): CC/C=C\C/C=C\C/C=C\C/C=C\C/C=C\CCCC(=O)OCC [EPA ethyl ester]

Structure (SMILES): CCC=CCC=CCC=CCC=CCC=CCC=CCCC(=O)O.CCC=CCC=CCC=CCC=CCC=CCC=CCCC(=O)O.N=C(N)NCCCC(N)C(=O)NC(CCCNC(=N)N)C(=O)O [Arginyl-arginine Bis-DHA]
Stability by NMR (amount of sample remaining relative to original sample) ([1]; Day 3): 1 (1 = >95%)
Stability by NMR (amount of sample remaining relative to original sample) ([1]; Day 14): 1 (1 = >95%)
Stability by NMR (amount of sample remaining relative to original sample) ([1]; Day 30): 1 (1 = >95%)
Stability by NMR (amount of sample remaining relative to original sample) ([1]; Day 60): 1 (1 = >95%)

Structure (SMILES): CCC=CCC=CCC=CCC=CCC=CCCCC(=O)O.CCC=CCC=CCC=CCC=CCC=CCCCC(=O)O.N=C(N)NCCCC(N)C(=O)NC(CCCCN)C(=O)O [Arginyl-lysine Bis-EPA]
Stability by NMR (amount of sample remaining relative to original sample) ([1]; Day 3): 1 (1 = >95%)
Stability by NMR (amount of sample remaining relative to original sample) ([1]; Day 14): 1 (1 = >95%)
Stability by NMR (amount of sample remaining relative to original sample) ([1]; Day 30): 1 (1 = >95%)
Stability by NMR (amount of sample remaining relative to original sample) ([1]; Day 60): 1 (1 = >95%)

Structure (SMILES): CC/C=C\C/C=C\C/C=C\C/C=C\C/C=C\CCCC(=O)O [EPA-FFA, eicosapentaenoic acid]
Tmax ([2]; both sexes, Sprague-Dawley, plasma): 0.5 h
concentration at 0 h ([2]; both sexes, Sprague-Dawley, plasma, 0 h (pre-dose), molar dose equivalent, baseline adjusted, read-out: Plasma level of free EPA): 0 ng/mL
concentration at 0.25 h ([2]; both sexes, Sprague-Dawley, plasma, 0.25 h (15 min), molar dose equivalent, baseline adjusted, read-out: Plasma level of free EPA): 0 ng/mL
concentration at 0.5 h ([2]; both sexes, Sprague-Dawley, plasma, 0.5 h (30 min), molar dose equivalent, baseline adjusted, read-out: Plasma level of free EPA): 1300 ng/mL
concentration at 1 h ([2]; both sexes, Sprague-Dawley, plasma, 1 h (60 min), molar dose equivalent, baseline adjusted, read-out: Plasma level of free EPA): 500 ng/mL
concentration at 2 h ([2]; both sexes, Sprague-Dawley, plasma, 2 h (120 min), molar dose equivalent, baseline adjusted, read-out: Plasma level of free EPA): 800 ng/mL
concentration at 4 h ([2]; both sexes, Sprague-Dawley, plasma, 4 h (240 min), molar dose equivalent, baseline adjusted, read-out: Plasma level of free EPA): 1100 ng/mL
concentration at 8 h ([2]; both sexes, Sprague-Dawley, plasma, 8 h, molar dose equivalent, baseline adjusted, read-out: Plasma level of free EPA): 900 ng/mL
concentration at 12 h ([2]; both sexes, Sprague-Dawley, plasma, 12 h, molar dose equivalent, baseline adjusted, read-out: Plasma level of free EPA): 300 ng/mL
concentration at 18 h ([2]; both sexes, Sprague-Dawley, plasma, 18 h, molar dose equivalent, baseline adjusted, read-out: Plasma level of free EPA): 0 ng/mL
AUC 0-1 hrs (free EPA) [2, 12]: 600 ng·h/mL
AUC 0-4 hrs (free EPA) [2, 12]: 3100 ng·h/mL
AUC 0-18 hrs (free EPA) [2, 12]: 10500 ng·h/mL
Cmax (free EPA) [2, 12]: 1300 ng/mL

Structure (SMILES): CCC=CCC=CCC=CCC=CCC=CCCCC(=O)O.CCC=CCC=CCC=CCC=CCC=CCCCC(=O)O.N=C(N)NCCCC(N)C(=O)NC(CCCNC(=N)N)C(=O)O (stereo not drawn) [Arginyl-arginine Bis-EPA] (H-Arg-Arg-OH; configuration not given here)
Stability by NMR (amount of sample remaining relative to original sample) ([1]; Day 3): 1 (1 = >95%)
Stability by NMR (amount of sample remaining relative to original sample) ([1]; Day 14): 1 (1 = >95%)
Stability by NMR (amount of sample remaining relative to original sample) ([1]; Day 30): 1 (1 = >95%)
Stability by NMR (amount of sample remaining relative to original sample) ([1]; Day 60): 1 (1 = >95%)

Structure (SMILES): CCC=CCC=CCC=CCC=CCC=CCC=CCCC(=O)O.CCC=CCC=CCC=CCC=CCC=CCC=CCCC(=O)O.N=C(N)NCCCC(N)C(=O)NC(CCCCN)C(=O)O [Arginyl-lysine Bis-DHA]
Stability by NMR (amount of sample remaining relative to original sample) ([1]; Day 3): 1 (1 = >95%)
Stability by NMR (amount of sample remaining relative to original sample) ([1]; Day 14): 1 (1 = >95%)
Stability by NMR (amount of sample remaining relative to original sample) ([1]; Day 30): 1 (1 = >95%)
Stability by NMR (amount of sample remaining relative to original sample) ([1]; Day 60): 1 (1 = >95%)

Structure (SMILES): CC/C=C\C/C=C\C/C=C\C/C=C\C/C=C\C/C=C\CCC(=O)O [DHA-FFA, DHA]
Tmax (free DHA) [2]: 4 h
Plasma level of free DHA [2, 3]: 0 ng/mL
Plasma level of free DHA [2, 4]: 0 ng/mL
Plasma level of free DHA [2, 5]: 1800 ng/mL
Plasma level of free DHA [2, 6]: 1800 ng/mL
Plasma level of free DHA [2, 7]: 2200 ng/mL
Plasma level of free DHA [2, 8]: 3400 ng/mL
Plasma level of free DHA [2, 9]: 1700 ng/mL
Plasma level of free DHA [2, 10]: 2100 ng/mL
Plasma level of free DHA [2, 11]: 1200 ng/mL
AUC 0-1 hrs (free DHA) [2, 12]: 1100 ng·h/mL
AUC 0-4 hrs (free DHA) [2, 12]: 8700 ng·h/mL
AUC 0-18 hrs (free DHA) [2, 12]: 36300 ng·h/mL
Cmax (free DHA) [2, 12]: 3400 ng/mL
